Data reported in patent US11390604B2 (Hoffmann-La Roche Inc., priority 2019, dated 2022).
Counter-ions that a name gives are not always drawn.

System: Acinetobacter baumannii ATCC 17961
Test: Antimicrobial susceptibility testing: 90% growth inhibitory concentration (IC90) determination
Assay type: cell-based
Settings: ATCC17961, Acinetobacter baumannii ATCC 17961, Iso-Sensitest broth, read-out: ATCC 17961 IC90
Protocol: Antimicrobial Susceptibility Testing:
90% Growth Inhibitory Concentration (IC90) Determination
The in vitro antimicrobial activity of the compounds was determined according to the following procedure:
The assay used a 10-points Iso-Sensitest broth medium to measure quantitatively the in vitro activity of the compounds against Acinetobacter baumannii ATCC 17961.
Stock compounds in DMSO were serially twofold diluted (e.g. range from 50 to 0.097 μM final concentration) in 384 wells microtiter plates and inoculated with 49 μl the bacterial suspension in Iso-Sensitest medium to have a final cell concentration of ˜5×10^(5) CFU/ml in a final volume/well of 50 ul/well. Microtiter plates were incubated at 35±2° C.
Bacterial cell growth was determined with the measurement of optical density at X=600 nm each 20 minutes over a time course of 16 h. Growth inhibition was calculated during the logarithmic growth of the bacterial cells with determination of the concentration inhibiting 50% (IC50) and 90% (IC90) of the growth.
Table 1 provides the 90% growth inhibitory concentrations (IC90) in micromoles per liter of the compounds of present disclosure obtained against the strain Acinetobacter baumannii ATCC 17961.

Row | Structure (SMILES) | IC90
1 | Cn1c(-c2cn(C3CC3(F)F)nc2C(F)(F)F)cnc1C(=O)Nc1ccc(C(=O)NC2(C)CCN(C(=O)N[C@H]3C[C@@H](N)C3)CC2)c(Cl)c1 (mixture of isomers) [Example 333, rac-N-((1s,3s)-3-aminocyclobutyl)-4-(2-chloro-4-(5-(1-(2,2-difluorocyclopropyl)-3-(trifluoromethyl)-1H-pyrazol-4-yl)-1-methyl-1H-imidazole-2-carboxamido)benzamido)-4-methylpiperidine-1-carboxamide formate] | 422 nM
2 | Cn1c(-c2cn(C3CC3(F)F)nc2C(F)(F)F)cnc1C(=O)Nc1ccc(C(=O)N[C@H]2C[C@H]3CC[C@@H](C2)N3)c(Cl)c1 (mixture of isomers) [Example 346, rac-N-(4-(((1R,3r,5S)-8-azabicyclo[3.2.1]octan-3-yl)carbamoyl)-3-chlorophenyl)-5-(1-(2,2-difluorocyclopropyl)-3-(trifluoromethyl)-1H-pyrazol-4-yl)-1-methyl-1H-imidazole-2-carboxamide formate] | 446 nM
3 | Cn1c(-c2cn(C3CC3(F)F)nc2C(F)(F)F)cnc1C(=O)Nc1ccc(C(=O)NC2CC3CN(C(=O)N[C@H]4CNC[C@@H]4O)CC32)c(Cl)c1 (mixture of isomers) [Example 347, rac-6-(2-chloro-4-(5-(1-(2,2-difluorocyclopropyl)-3-(trifluoromethyl)-1H-pyrazol-4-yl)-1-methyl-1H-imidazole-2-carboxamido)benzamido)-N-((3S,4S)-4-hydroxypyrrolidin-3-yl)-3-azabicyclo[3.2.0]heptane-3-carboxamide formate] | 446 nM
4 | COC1CN(C(=O)N[C@H]2CNC[C@@H]2O)CC1NC(=O)c1ccc(NC(=O)c2ncc(-c3cn(C4CC4(F)F)nc3C(F)(F)F)n2C)cc1Cl (mixture of isomers) [Example 350, rac-N-(3-chloro-4-((trans-1-(((3R,4R)-4-hydroxypyrrolidin-3-yl)carbamoyl)-4-methoxypyrrolidin-3-yl)carbamoyl)phenyl)-5-(1-(2,2-difluorocyclopropyl)-3-(trifluoromethyl)-1H-pyrazol-4-yl)-1-methyl-1H-imidazole-2-carboxamide formate] | 450 nM
5 | Cn1c(-c2cn(CC3CC3)nc2C(F)(F)F)cnc1C(=O)Nc1ccc(C(=O)N2CCN(C(=O)C3[C@H]4CNC[C@@H]34)CC2)c(Cl)c1 (mixture of isomers) [Example 358, rac-N-(4-(4-((1R,5S)-3-azabicyclo[3.1.0]hexane-6-carbonyl)piperazine-1-carbonyl)-3-chlorophenyl)-5-(1-(cyclopropylmethyl)-3-(trifluoromethyl)-1H-pyrazol-4-yl)-1-methyl-1H-imidazole-2-carboxamide hydrochloride] | 467 nM
6 | Cn1c(-c2cn(C3CC3(F)F)nc2C(F)(F)F)cnc1C(=O)Nc1ccc(C(=O)NCC2C3CN(C(=O)N[C@H]4CNC[C@@H]4O)CC23)c(Cl)c1 (mixture of isomers) [Example 365, rac-6-((2-chloro-4-(5-(1-(2,2-difluorocyclopropyl)-3-(trifluoromethyl)-1H-pyrazol-4-yl)-1-methyl-1H-imidazole-2-carboxamido)benzamido)methyl)-N-((3S,4S)-4-hydroxypyrrolidin-3-yl)-3-azabicyclo[3.1.0]hexane-3-carboxamide formate] | 483 nM
7 | Cn1c(-c2cn(CC3CC3(F)F)nc2C(F)(F)F)cnc1C(=O)Nc1ccc(C(=O)N[C@H]2[C@@H]3CN(C(=O)N[C@@H]4CNC[C@H]4O)C[C@@H]32)c(Cl)c1 (mixture of isomers) [Example 385, rac-(1R,5S,6s)-6-(2-chloro-4-(5-(1-((2,2-difluorocyclopropyl)methyl)-3-(trifluoromethyl)-1H-pyrazol-4-yl)-1-methyl-1H-imidazole-2-carboxamido)benzamido)-N-((3S,4S)-4-hydroxypyrrolidin-3-yl)-3-azabicyclo[3.1.0]hexane-3-carboxamide formate] | 100 nM
8 | Cn1c(-c2cn(C3CC3(F)F)nc2C(F)(F)F)cnc1C(=O)Nc1ccc(C(=O)NC2CCN(C(=O)N[C@@H]3CNC[C@H]3O)CC2)c(Cl)c1 (relative stereo) [Example 337, 4-(2-chloro-4-(5-(1-(2,2-difluorocyclopropyl)-3-(trifluoromethyl)-1H-pyrazol-4-yl)-1-methyl-1H-imidazole-2-carboxamido)benzamido)-N-(trans-4-hydroxypyrrolidin-3-yl)piperidine-1-carboxamide] | 426 nM
9 | Cn1c(-c2c[nH]nc2C(F)(F)F)cnc1C(=O)Nc1ccc(C(=O)N2CCN(C(=O)C3CCNCC3)CC2)c(Cl)c1 [Example 1, N-(3-chloro-4-(4-(piperidine-4-carbonyl)piperazine-1-carbonyl)phenyl)-1-methyl-5-(3-(trifluoromethyl)-1H-pyrazol-4-yl)-1H-imidazole-2-carboxamide hydrochloride] | 525 nM
10 | Cn1c(-c2cn(CC(F)(F)F)nc2C(F)(F)F)cnc1C(=O)Nc1ccc(C(=O)N2CCN(C(=O)C3CCNCC3)CC2)c(Cl)c1 [Example 2, N-(3-Chloro-4-(4-(piperidine-4-carbonyl)piperazine-1-carbonyl)phenyl)-1-methyl-5-(1-(2,2,2-trifluoroethyl)-3-(trifluoromethyl)-1H-pyrazol-4-yl)-1H-imidazole-2-carboxamide Hydrochloride] | 399 nM
11 | Cn1c(-c2cn(CCC(N)=O)nc2C(F)(F)F)cnc1C(=O)Nc1ccc(C(=O)N2CCN(C(=O)C3CCNCC3)CC2)c(Cl)c1 [Example 4, 5-(1-(3-amino-3-oxopropyl)-3-(trifluoromethyl)-1H-pyrazol-4-yl)-N-(3-chloro-4-(4-(piperidine-4-carbonyl)piperazine-1-carbonyl)phenyl)-1-methyl-1H-imidazole-2-carboxamide] | 4060 nM
12 | Cn1c(-c2cn(CCC#N)nc2C(F)(F)F)cnc1C(=O)Nc1ccc(C(=O)N2CCN(C(=O)C3CCNCC3)CC2)c(Cl)c1 [Example 5, N-(3-chloro-4-(4-(piperidine-4-carbonyl)piperazine-1-carbonyl)phenyl)-5-(1-(2-cyanoethyl)-3-(trifluoromethyl)-1H-pyrazol-4-yl)-1-methyl-1H-imidazole-2-carboxamide] | 1040 nM
13 | Cn1c(-c2cn(CC#CCO)nc2C(F)(F)F)cnc1C(=O)Nc1ccc(C(=O)N2CCN(C(=O)C3CCNCC3)CC2)c(Cl)c1 [Example 6, N-(3-chloro-4-(4-(piperidine-4-carbonyl)piperazine-1-carbonyl)phenyl)-5-(1-(4-hydroxybut-2-yn-1-yl)-3-(trifluoromethyl)-1H-pyrazol-4-yl)-1-methyl-1H-imidazole-2-carboxamide hydrochloride] | 676 nM
14 | C=CCn1cc(-c2cnc(C(=O)Nc3ccc(C(=O)N4CCN(C(=O)C5CCNCC5)CC4)c(Cl)c3)n2C)c(C(F)(F)F)n1 [Example 7, 5-(1-allyl-3-(trifluoromethyl)-1H-pyrazol-4-yl)-N-(3-chloro-4-(4-(piperidine-4-carbonyl)piperazine-1-carbonyl)phenyl)-1-methyl-1H-imidazole-2-carboxamide hydrochloride] | 358 nM
15 | CC#CCn1cc(-c2cnc(C(=O)Nc3ccc(C(=O)N4CCN(C(=O)C5CCNCC5)CC4)c(Cl)c3)n2C)c(C(F)(F)F)n1 [Example 8, 5-(1-(but-2-yn-1-yl)-3-(trifluoromethyl)-1H-pyrazol-4-yl)-N-(3-chloro-4-(4-(piperidine-4-carbonyl)piperazine-1-carbonyl)phenyl)-1-methyl-1H-imidazole-2-carboxamide hydrochloride] | 327 nM
16 | C#CC(C)n1cc(-c2cnc(C(=O)Nc3ccc(C(=O)N4CCN(C(=O)C5CCNCC5)CC4)c(Cl)c3)n2C)c(C(F)(F)F)n1 (stereo not shown) [Example 9, 5-(1-(but-3-yn-2-yl)-3-(trifluoromethyl)-1H-pyrazol-4-yl)-N-(3-chloro-4-(4-(piperidine-4-carbonyl)piperazine-1-carbonyl)phenyl)-1-methyl-1H-imidazole-2-carboxamide hydrochloride] | 320 nM
17 | Cn1c(-c2cn(C3CCC3)nc2C(F)(F)F)cnc1C(=O)Nc1ccc(C(=O)N2CCN(C(=O)C3CCNCC3)CC2)c(Cl)c1 [Example 10, N-(3-chloro-4-(4-(piperidine-4-carbonyl)piperazine-1-carbonyl)phenyl)-5-(1-cyclobutyl-3-(trifluoromethyl)-1H-pyrazol-4-yl)-1-methyl-1H-imidazole-2-carboxamide hydrochloride] | 339 nM
18 | Cn1c(-c2cn(CCF)nc2C(F)(F)F)cnc1C(=O)Nc1ccc(C(=O)N2CCN(C(=O)C3CCNCC3)CC2)c(Cl)c1 [Example 11, N-(3-chloro-4-(4-(piperidine-4-carbonyl)piperazine-1-carbonyl)phenyl)-5-(1-(2-fluoroethyl)-3-(trifluoromethyl)-1H-pyrazol-4-yl)-1-methyl-1H-imidazole-2-carboxamide hydrochloride] | 466 nM

Same assay, conditions: Acinetobacter baumannii, ATCC17961, read-out: ATCC 17961 IC90, Acinetobacter baumannii ATCC 17961, Iso-Sensitest broth

Row | Structure (SMILES) | IC90
19 | Cn1c(-c2cn(C3CC3(F)F)nc2C(F)(F)F)cnc1C(=O)Nc1ccc(C(=O)N2CCC(F)(CNC(=O)N[C@H]3CNC[C@@H]3O)CC2)c(Cl)c1 (relative stereo) [Example 179, N-(3-chloro-4-(4-fluoro-4-((3-(trans-4-hydroxypyrrolidin-3-yl)ureido)methyl)piperidine-1-carbonyl)phenyl)-5-(1-(2,2-difluorocyclopropyl)-3-(trifluoromethyl)-1H-pyrazol-4-yl)-1-methyl-1H-imidazole-2-carboxamide Formate] | 192 nM
